We go through four compounds from US12370237B2, “Lipopeptides for use in treating liver diseases and cardiovascular diseases” (RUPRECHT-KARLS-UNIVERSITAET HEIDELBERG, priority 2012, dated 2025).

Test [1] relates to HBV. Nature of the test: HBV infection of differentiated HepaRG and HuH7^hNTCP cells in presence of NTCP substrates (secreted HBeAg). It is filed as cell-based. Particulars: for Reduction of HBV infection (HBeAg secretion): 5 μM; for Inhibition of HBV infection as shown by HBeAg secretion: 50 μM and 500 μM.
Test [2] concerns the target T1, hNTCP (Homo sapiens, UniProt Q14973).
T1 construct: host or cells: HuH7
T1 sequence (Q14973 1-349): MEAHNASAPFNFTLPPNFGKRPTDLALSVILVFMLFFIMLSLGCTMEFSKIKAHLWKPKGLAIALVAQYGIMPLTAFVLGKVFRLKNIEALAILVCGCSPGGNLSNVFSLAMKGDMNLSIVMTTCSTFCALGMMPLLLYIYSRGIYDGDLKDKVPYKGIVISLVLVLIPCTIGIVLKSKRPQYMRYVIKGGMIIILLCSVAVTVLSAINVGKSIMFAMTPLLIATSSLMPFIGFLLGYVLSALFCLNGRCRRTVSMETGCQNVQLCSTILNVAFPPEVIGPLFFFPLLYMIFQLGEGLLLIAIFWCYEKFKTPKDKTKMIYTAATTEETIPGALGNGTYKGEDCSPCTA
Nature of the test: MyrB^atto binding competition assay by FACS in HuH7^hNTCP cells. Particulars: 500 μM. The protocol:
Binding was quantified by FACS analysis.
(§1) Cells were washed (PBS/1% BSA), trypsinized, and suspended in Krebs-Henseleit-Buffer. Flow cytometry was performed on a FACS Canto II (BD Bioscience, Heidelberg, Germany); FlowJo v7.61 software (Treestar, Ashton, USA) was used for analysis. Compensation was performed using BD Compbeats (BD Bioscience, Heidelberg, Germany).

The target of test [3] is T2, ratNTCP-eGFP (Rattus norvegicus, UniProt P26435).
T2 construct: expressed in transfected cells; host or cells: HepG2
T2 sequence (P26435 1-362): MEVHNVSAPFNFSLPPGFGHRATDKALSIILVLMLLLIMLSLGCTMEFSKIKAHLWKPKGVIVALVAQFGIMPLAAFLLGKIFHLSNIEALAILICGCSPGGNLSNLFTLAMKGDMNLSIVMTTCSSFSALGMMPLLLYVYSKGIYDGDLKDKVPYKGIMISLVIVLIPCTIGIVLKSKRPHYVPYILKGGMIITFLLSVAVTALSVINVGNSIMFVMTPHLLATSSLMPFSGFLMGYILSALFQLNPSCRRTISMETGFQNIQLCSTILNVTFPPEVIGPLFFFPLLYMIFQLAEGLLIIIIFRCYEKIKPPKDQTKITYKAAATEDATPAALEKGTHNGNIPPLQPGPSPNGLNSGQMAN
As to the kind of experiment: MyrB^atto binding to HepG2 ratNTCP-eGFP cells (confocal microscopy). The protocol:
Note the co-localisation of hNTCP/MyrB^atto in microvilli.
Cells were washed again (3×PBS/2% BSA), fixed with PFA, washed with PBS/1 ug/ml Hoechst 3342 and mounted (FluoromountG). NTCP immune staining was achieved after permeabilisation (10 min/RT) with TritonX 100 using a α-SCL10A1/NTCP antibody (Sigma, Germany) diluted 1:750 in PBS/2% BSA (18 h at 4° C.). A polyclonal rabbit antiserum H863 was used for HBcAg-staining, a polyclonal rabbit antiserum for MRP-2 detection, patient-derived serum (M. Roggendorf, Essen) for HδAg. As secondary antibodies goat anti-rabbit or -human, labelled with either AlexaFluor488 or AlexaFluor546 (Invitrogen) was used. Actin staining was performed by the addition of atto633-labelled Phalloidin diluted 1:2000 (ATTO-Tec, Germany) to the second staining step. Images were taken on a Leica DM IRB or Leica SP2 confocal microscope (Leica, Germany), image analysis was performed using ImageJ.
(§2) Taking advantage of the fluorescence of the ratNTCP-eGFP fusion, we confirmed co-localisation of the MyrB/rNtcp-complex in microvilli.

For test [4], the target named is T3, mNtcp (Mus musculus, UniProt O08705).
T3 construct: expressed in transfected cells; host or cells: HepG2
T3 sequence (O08705 1-362): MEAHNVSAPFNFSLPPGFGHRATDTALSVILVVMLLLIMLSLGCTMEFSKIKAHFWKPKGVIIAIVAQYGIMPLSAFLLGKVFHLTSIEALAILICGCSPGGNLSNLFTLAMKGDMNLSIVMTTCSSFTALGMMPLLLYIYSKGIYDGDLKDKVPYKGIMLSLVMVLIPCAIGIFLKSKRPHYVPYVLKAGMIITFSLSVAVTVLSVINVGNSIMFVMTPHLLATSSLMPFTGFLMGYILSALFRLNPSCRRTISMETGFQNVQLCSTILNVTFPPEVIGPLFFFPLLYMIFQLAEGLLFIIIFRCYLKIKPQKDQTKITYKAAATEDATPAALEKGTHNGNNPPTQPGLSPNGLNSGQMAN
Nature of the test: MyrB^atto binding to HepG2^mNtcp cells (FACS). The protocol: as §1, §2

As to `C[C@H](CCC(=O)NCCS(=O)(=O)O)[C@H]1CC[C@H]2[C@@H]3[C@H](O)C[C@@H]4C[C@H](O)CC[C@]4(C)[C@H]3CC[C@]12C` [TCDC, Taurochenodeoxy-Cholate], in test [1], the “Reduction of HBV infection (HBeAg secretion)” value is “Marginal reduction” and the “Inhibition of HBV infection as shown by HBeAg secretion” value is “inhibited HBV-infection”. The “Interference with MyrB^atto (preS) binding” value (shortened to “Interference with MyrB^atto”) in test [2] was “profoundly interfered with preS-binding”.

With `C[C@H](CCC(=O)NCCS(=O)(=O)O)[C@H]1CC[C@H]2[C@@H]3[C@H](O)C[C@@H]4C[C@H](O)CC[C@]4(C)[C@H]3C[C@H](O)[C@]12C` [TC, Taurocholate], the “Interference with MyrB^atto” value in test [2] was “profoundly interfered with preS-binding”.

As to “MyrB^atto: atto-dye-labeled MyrB (atto488/atto565 NHS-ester coupled to lysine residues)”, the “Binding to rat NTCP-eGFP-expressing cells” value in test [3] is “specific and competable binding”. For the same compound, in test [4], the “Binding to mNtcp-expressing cells” value was “specific and competable binding”.

On to `C[C@H](CCC(=O)NCCS(=O)(=O)O)[C@H]1CC[C@H]2[C@@H]3CC[C@@H]4C[C@H](O)CC[C@]4(C)[C@H]3C[C@H](O)[C@]12C` [TDC, Taurodeoxycholate], for which, in test [1], the “Reduction of HBV infection (HBeAg secretion)” value is “Marginal reduction” and the “Inhibition of HBV infection as shown by HBeAg secretion” value was “inhibited HBV-infection”. Also, the “Interference with MyrB^atto” value in test [2] is “profoundly interfered with preS-binding”.
